Laboratory results as given in ChEMBL document CHEMBL5528055, “Discovery and Identification of Novel 5-Hydroxy-4H-benzo[1,4]oxazin-3-one Derivatives as Potent β2-Adrenoceptor Agonists through Structure-Based Design, Synthesis, and Biological Evaluation” (J Med Chem, 2024).

How the values were obtained:
[1] = biological target: Beta-1 adrenergic receptor (Homo sapiens, UniProt P08588)
Description: Agonist activity at human beta1 adrenoceptor expressed in HEK293 cells assessed as induction of accumulation of cAMP by HTRF assay

[2] = biological target: Beta-2 adrenergic receptor (Homo sapiens, UniProt P07550)
Description: Agonist activity at human beta2 adrenoceptor expressed in HEK293 cells assessed as induction of accumulation of cAMP by HTRF assay

Trachea = assay: Induction of smooth muscle relaxation in male Dunkin-Hartley guinea pig trachea strips assessed as maximal relaxation of histamine phosphate-induced guinea pig airway smooth muscle contraction relative to control; conditions: Cavia porcellus
[3] = Cmax in male Balb/c mouse at 2 mg/kg, iv measured upto 24 hrs by LC-MS/MS analysis; assay type: ADME, organism-based; conditions: in vivo
[4] = Apparent volume of distribution in male Balb/c mouse at 2 mg/kg, iv measured upto 24 hrs by LC-MS/MS analysis; assay type: ADME, organism-based; conditions: in vivo, read-out: Vd(app)
[5] = Tmax in male Balb/c mouse at 10 mg/kg, po measured upto 24 hrs by LC-MS/MS analysis; assay type: ADME, organism-based; conditions: in vivo
[6] = Half life in male Balb/c mouse at 10 mg/kg, po measured upto 24 hrs by LC-MS/MS analysis; assay type: ADME, organism-based; conditions: in vivo
[7] = Tmax in male Balb/c mouse at 2 mg/kg, iv measured upto 24 hrs by LC-MS/MS analysis; assay type: ADME, organism-based; conditions: in vivo
[8] = Oral bioavailability in male Balb/c mouse at 10 mg/kg measured upto 24 hrs by LC-MS/MS analysis; assay type: ADME, organism-based; conditions: in vivo
[9] = MRT (0 to infinity) in male Balb/c mouse at 10 mg/kg, po measured upto 24 hrs by LC-MS/MS analysis; assay type: ADME, organism-based; conditions: in vivo
[10] = AUC (0 to infinity) in male Balb/c mouse at 10 mg/kg, po measured upto 24 hrs by LC-MS/MS analysis; assay type: ADME, organism-based; conditions: in vivo
[11] = AUC (0 to t) in male Balb/c mouse at 10 mg/kg, po measured upto 24 hrs by LC-MS/MS analysis; assay type: ADME, organism-based; conditions: in vivo
[12] = MRT (0 to infinity) in male Balb/c mouse at 2 mg/kg, iv measured upto 24 hrs by LC-MS/MS analysis; assay type: ADME, organism-based; conditions: in vivo
[13] = AUC (0 to t) in male Balb/c mouse at 2 mg/kg, iv measured upto 24 hrs by LC-MS/MS analysis; assay type: ADME, organism-based; conditions: in vivo
[14] = MRT in male Balb/c mouse at 10 mg/kg, po measured upto 24 hrs by LC-MS/MS analysis; assay type: ADME, organism-based; conditions: in vivo
[15] = MRT in male Balb/c mouse at 2 mg/kg, iv measured upto 24 hrs by LC-MS/MS analysis; assay type: ADME, organism-based; conditions: in vivo
[16] = Half life in male Balb/c mouse at 2 mg/kg, iv measured upto 24 hrs by LC-MS/MS analysis; assay type: ADME, organism-based; conditions: in vivo
[17] = Cmax in male Balb/c mouse at 10 mg/kg, po measured upto 24 hrs by LC-MS/MS analysis; assay type: ADME, organism-based; conditions: in vivo
[18] = Clearance in male Balb/c mouse at 2 mg/kg, iv measured upto 24 hrs by LC-MS/MS analysis; assay type: ADME, organism-based; conditions: in vivo
[19] = AUC (0 to infinity) in male Balb/c mouse at 2 mg/kg, iv measured upto 24 hrs by LC-MS/MS analysis; assay type: ADME, organism-based; conditions: in vivo

Beta-1 adrenergic receptor, sequence (P08588 whole entry): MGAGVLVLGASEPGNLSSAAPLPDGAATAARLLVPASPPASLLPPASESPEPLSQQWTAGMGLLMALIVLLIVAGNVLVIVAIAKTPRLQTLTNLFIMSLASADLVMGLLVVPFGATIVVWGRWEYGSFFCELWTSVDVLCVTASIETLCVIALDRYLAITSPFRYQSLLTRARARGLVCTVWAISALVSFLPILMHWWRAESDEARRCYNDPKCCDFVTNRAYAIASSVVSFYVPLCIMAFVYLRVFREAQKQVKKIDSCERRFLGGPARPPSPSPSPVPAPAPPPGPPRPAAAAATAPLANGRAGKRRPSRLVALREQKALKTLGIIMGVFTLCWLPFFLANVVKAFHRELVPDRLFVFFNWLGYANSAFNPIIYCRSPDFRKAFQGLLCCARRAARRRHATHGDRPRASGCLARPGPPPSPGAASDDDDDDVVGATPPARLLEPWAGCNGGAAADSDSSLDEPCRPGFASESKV
Beta-2 adrenergic receptor, sequence (P07550 whole entry): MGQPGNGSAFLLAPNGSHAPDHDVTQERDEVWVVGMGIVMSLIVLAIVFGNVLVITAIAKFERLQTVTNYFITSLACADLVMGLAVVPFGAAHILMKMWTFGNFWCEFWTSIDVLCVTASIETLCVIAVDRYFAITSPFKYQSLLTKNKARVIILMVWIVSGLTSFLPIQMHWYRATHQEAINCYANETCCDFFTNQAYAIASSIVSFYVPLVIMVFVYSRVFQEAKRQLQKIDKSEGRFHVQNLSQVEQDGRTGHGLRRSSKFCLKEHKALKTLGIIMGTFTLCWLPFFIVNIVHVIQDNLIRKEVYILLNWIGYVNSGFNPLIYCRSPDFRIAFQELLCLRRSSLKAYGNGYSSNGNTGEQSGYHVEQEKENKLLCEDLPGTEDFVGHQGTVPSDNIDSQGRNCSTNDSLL

Structure (SMILES)	EC50 [1] [nM]	EC50 [2] [nM]	Emax (Trachea) [%]	also measured
O=C1COc2c(C(O)CNCCCc3ccccc3O)ccc(O)c2N1 (stereo unspecified)	0.129	–	–	–
O=C1COc2c(C(O)CNCCc3cccc(F)c3)ccc(O)c2N1 (stereo unspecified)	1.38	0.024	94.9	–
O=C1COc2c(C(O)CNCCc3ccccc3)ccc(O)c2N1 (stereo unspecified)	1.91	–	–	–
O=C1COc2c(C(O)CNCCCc3ccc(C(F)(F)F)cc3)ccc(O)c2N1 (stereo unspecified)	1.2	0.0055	132	–
O=C1COc2c(C(O)CNCCc3ccc(F)cc3)ccc(O)c2N1 (stereo unspecified)	3.72	0.00537	76.7	–
O=C1COc2c(C(O)CNCCc3ccc(Cl)cc3)ccc(O)c2N1 (stereo unspecified)	1000	1.32	86.7	–
Cc1ccccc1CCNCC(O)c1ccc(O)c2c1OCC(=O)N2 (stereo unspecified)	0.912	0.0282	135	–
O=C1COc2c(C(O)CNCCCc3ccccc3)ccc(O)c2N1 (stereo unspecified)	0.257	0.00589	237	–
O=C1COc2c(C(O)CNCCCc3cccc(C(F)(F)F)c3)ccc(O)c2N1 (stereo unspecified)	0.513	–	–	–
Cc1ccccc1CCCNCC(O)c1ccc(O)c2c1OCC(=O)N2 (stereo unspecified)	0.324	–	–	–
COc1ccc(CCNCC(O)c2ccc(O)c3c2OCC(=O)N3)cc1 (stereo unspecified)	2.19	0.0132	59.6	–
O=C1COc2c(C(O)CNCCCc3cccc(F)c3)ccc(O)c2N1 (stereo unspecified)	–	0.00468	126	–
COc1cccc(CCNCC(O)c2ccc(O)c3c2OCC(=O)N3)c1 (stereo unspecified)	–	0.00871	–	–
CCCNCC(O)c1ccc(O)c2c1OCC(=O)N2 (stereo unspecified)	14.5	0.0316	60.5	–
CC(C)NCC(O)c1ccc(O)c(O)c1 (stereo unspecified) [ISOPROTERENOL]	–	–	141	–
CCCCCCNCC(O)c1ccc(O)c2c1OCC(=O)N2 (stereo unspecified)	2.19	–	–	–
COc1ccccc1CCCNCC(O)c1ccc(O)c2c1OCC(=O)N2 (stereo unspecified)	0.178	0.00457	109	–
O=C1COc2c(C(O)CNCCc3ccccc3F)ccc(O)c2N1 (stereo unspecified)	4.07	0.0115	128	–
CC(C)(C)NCC(O)c1ccc(O)c2c1OCC(=O)N2 (stereo unspecified)	2.14	–	–	–
O=C1COc2c(C(O)CNCCc3ccccc3Cl)ccc(O)c2N1 (stereo unspecified)	5.37	–	–	–

Structure (SMILES)	EC50 [1] [nM]	EC50 [2] [nM]	Emax (Trachea) [%]	also measured
COc1ccc(CCCNCC(O)c2ccc(O)c3c2OCC(=O)N3)cc1 (stereo unspecified)	0.513	0.0038	74.2	–
O=C1COc2c(C(O)CNCCCCc3ccccc3)ccc(O)c2N1 (stereo unspecified)	0.309	–	–	–
O=C1COc2c(C(O)CNCCc3cccc(Cl)c3)ccc(O)c2N1 (stereo unspecified)	3.72	0.0269	65.3	–
O=C1COc2c(C(O)CNCCC(c3ccccc3)c3ccccc3)ccc(O)c2N1 (stereo unspecified)	2.24	0.0468	63.3	–
CCCCNCC(O)c1ccc(O)c2c1OCC(=O)N2 (stereo unspecified)	16.6	0.0257	53.3	–
COc1cccc(CCCNCC(O)c2ccc(O)c3c2OCC(=O)N3)c1 (stereo unspecified)	–	0.00794	–	–
Cc1ccc(CCCNCC(O)c2ccc(O)c3c2OCC(=O)N3)cc1 (stereo unspecified)	–	0.00759	–	–
COc1ccc(CC(C)(C)NC[C@H](O)c2cc(O)cc3c2OCC(=O)N3)cc1 [OLODATEROL]	33.9	–	–	–
O=C1COc2c(C(O)CNCCOc3ccccc3)ccc(O)c2N1 (stereo unspecified)	1.7	–	–	–
O=C1COc2c(C(O)CNC3CC3)ccc(O)c2N1 (stereo unspecified)	1.32	0.0224	123	–
O=C1COc2c(C(O)CNCCCc3ccc(O)cc3)ccc(O)c2N1 (stereo unspecified)	0.12	0.00575	181	–
O=C1COc2c(C(O)CNCCCc3cccc(O)c3)ccc(O)c2N1 (stereo unspecified)	0.138	0.00437	87.4	–
O=C1COc2c(C(O)CNCCCc3cc(F)cc(F)c3)ccc(O)c2N1 (stereo unspecified)	0.105	–	–	–
O=C1COc2c(C(O)CNCCCc3ccc(F)cc3)ccc(O)c2N1 (stereo unspecified)	0.245	0.0038	69.5	–
COc1ccccc1CCNCC(O)c1ccc(O)c2c1OCC(=O)N2.Cl (stereo unspecified)	–	–	–	Cmax [3]: 416 ng/mL; Vd [4]: 44 L/kg; Tmax [5]: 5.33 h; half-life [6]: 3.77 h; Tmax [7]: 4.98 min; F [8]: 7.65%; MRT inf [9]: 6.98 h; AUC [10]: 306 ng·h/mL; AUC(0-t) at 24 h [11]: 294 ng·h/mL; MRT inf [12]: 3.43 h; AUC(0-t) at 24 h [13]: 329 ng·h/mL; MRT [14]: 5.92 h; MRT [15]: 2.67 h; half-life [16]: 5.21 h; Cmax [17]: 24 ng/mL; clearance [18]: 102 mL/min/kg; AUC [19]: 338 ng·h/mL
CC(C)NCC(O)c1ccc(O)c2c1OCC(=O)N2 (stereo unspecified)	1.82	–	–	–
Cc1cccc(CCCNCC(O)c2ccc(O)c3c2OCC(=O)N3)c1 (stereo unspecified)	0.245	–	–	–
COc1cc(CCCNCC(O)c2ccc(O)c3c2OCC(=O)N3)cc(OC)c1OC (stereo unspecified)	1.58	0.0537	142	–
O=C1COc2c(C(O)CNCCCc3ccccc3F)ccc(O)c2N1 (stereo unspecified)	0.17	0.00479	90.5	–
